Test [1] concerns the target T1, SSTR3 (Homo sapiens, UniProt P32745). The experiment in a line: SSTR3 receptor-ligand binding assay, (3-125I-Tyr11)-SRIF-14 radioligand, CHO-K1 cell membranes. On the set-up: expressed in transfected cells; membranes used. The following applies: cloned human SSTR3, CHO-K1 membranes, 0.1 nM radioligand. The procedure:
The receptor-ligand binding assays of all 5 subtype of SSTRs were performed with membranes isolated from Chinese hamster ovary (CHO)—K1 cells stably expressing the cloned human somatostatin receptors in 96-well format as previous reported.
The stable cell lines for SSTR1-SSTR5 were developed by stably transfecting with DNA for all five SSTRs using Lipofectamine. […] The assay buffer consisted of 50 mM TrisHCl (pH 7.8) with 1 mM EGTA, 5 mM MgCl2, leupeptin (10 μg/mL), pepstatin (10 μg/mL), bacitracin (200 μg/mL), and aprotinin (0.5 μg/mL). CHO—K1 cell membranes, radiolabeled somatostatin, and unlabeled test compounds were resuspended or diluted in this assay buffer. Unlabeled test compounds were examined over a range of concentrations from 0.01 nM to 10,000 nM.

Test [2] has as its target T1, SSTR3. Put plainly: SSTR3 functional antagonist assay: cAMP production with FSK + SS-14 in SSTR3 stable CHO cells. It is filed as cell-based, human or mouse. The conditions noted are these: […] FSK + 100 nM SS-14. On the set-up: […]. The procedure:
The effects of compounds that bind to human and murine SSTR3 with various affinities on the functional activity of the receptor were assessed by measuring cAMP production in the presence of Forskolin (FSK) along or FSK plus SS-14 in SSTR3 expressing CHO cells. FSK acts to induce cAMP production in these cells by activating adenylate cyclases, whereas SS-14 suppresses cAMP production in the SSTR3 stable cells by binding to SSTR3 and the subsequent inhibition of adenylate cyclases via an alpha subunit of GTP-binding protein (Gαi).
The amount of cAMP produced during the incubation was also quantified with the Lance cAMP assay. […] The % Inhibition of each compound was calculated using the following formula:
% Inhibition=[1−(unknown cAMP/FSK+SS-14 cAMP)]×100
On the technique in general: cAMP levels reflect the balance of adenylyl cyclase and phosphodiesterase activity.

In general, Ki refers to the dissociation constant of the complex between target and ligand, obtained from inhibition or displacement. High values mean a looser hold on the target, low ones a stronger hold on the target. As usually defined, the EC50 is the concentration giving half of the maximal effect.

T1 sequence (P32745 whole entry): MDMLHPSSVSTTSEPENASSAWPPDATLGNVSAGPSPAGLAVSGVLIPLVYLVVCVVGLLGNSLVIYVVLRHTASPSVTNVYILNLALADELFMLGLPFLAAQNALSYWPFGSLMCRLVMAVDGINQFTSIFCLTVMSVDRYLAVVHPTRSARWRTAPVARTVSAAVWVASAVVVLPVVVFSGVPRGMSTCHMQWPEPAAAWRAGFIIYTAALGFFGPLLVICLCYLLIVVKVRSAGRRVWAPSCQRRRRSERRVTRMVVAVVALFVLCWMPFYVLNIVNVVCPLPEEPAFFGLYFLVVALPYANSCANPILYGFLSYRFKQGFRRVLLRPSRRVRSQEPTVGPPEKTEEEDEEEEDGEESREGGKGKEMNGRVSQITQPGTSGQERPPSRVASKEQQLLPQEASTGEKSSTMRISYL

At SSTR3 [1], `Oc1nnc(C2(c3ccccc3)N[C@@H](c3nc(-c4ccc(F)cc4)c[nH]3)Cc3c2[nH]c2ccccc32)o1` (mixture of isomers) [Example 10] returned an inhibition constant Ki of 3.3 nM. For the same molecule, the EC50 at SSTR3 [2] stood at 10.7 nM.
The like results for `N#Cc1ccc(C2(c3nnc(O)o3)N[C@@H](c3nc(-c4ccc(F)cc4)c[nH]3)Cc3c2[nH]c2ccccc32)cc1` (mixture of isomers) [Example 13] were, in that order, 9.2 nM and 18.9 nM.
Consider `CCn1cc(C2(c3nnc(O)o3)NC(c3nc(-c4ccc(F)cc4)c[nH]3)Cc3c2[nH]c2ccccc32)cn1` (mixture of isomers) [Example 35], for which, on SSTR3 [2], the EC50 worked out at 1.8 nM.
Molecule `CCn1cc(C2(c3nn(C)c(=O)o3)N[C@@H](c3nc(-c4ccc(F)cc4)c[nH]3)Cc3c2[nH]c2ccccc32)cn1` (mixture of isomers) [Example 36] displayed a Ki on SSTR3 [1] of 1.1 nM. Besides, the EC50 on SSTR3 [2] came out at 1.9 nM.
In the case of `Cc1nc(C2(c3nnc(O)o3)NC(c3nc(-c4ccc(F)cc4)c[nH]3)Cc3c2[nH]c2ccccc32)no1` (mixture of isomers) [Example 38], at SSTR3 [2], the EC50 is 24.6 nM.
Take `Cc1nc(C2(c3nnc(N)o3)NC(c3nc(-c4ccc(F)cc4)c[nH]3)Cc3c2[nH]c2ccccc32)no1` (mixture of isomers) [Example 56]: on SSTR3 [2], the EC50 was determined as 17.8 nM.
With `CSc1nnc(C2(c3cnn(C)c3)NC(c3nc(-c4ccc(F)cn4)c[nH]3)Cc3c2[nH]c2ccccc32)o1` (mixture of isomers) [Example 57], the EC50 on SSTR3 [2] is 0.8 nM.
For the molecule `Cn1nc(C2(c3ccccc3)N[C@@H](c3nc(-c4ccc(F)cc4)c[nH]3)Cc3c2[nH]c2ccccc32)oc1=O` (single isomer, unassigned) [Example 1], affinity on SSTR3 [1] was put at a Ki of 0.8 nM. The EC50 on SSTR3 [2] stood at 3.8 nM.
With `Cn1nc(C2(c3ccccc3)N[C@@H](c3nc(-c4ccc(F)cc4)c[nH]3)Cc3c2[nH]c2ccccc32)oc1=O` (single isomer, unassigned) [Example 2], the Ki on SSTR3 [1] was determined as 31.4 nM. For the same molecule, the EC50 on SSTR3 [2] was 29.1 nM.
For the molecule `CCn1nc(C2(c3noc(C)n3)N[C@@H](c3nc(-c4ccc(F)cn4)c[nH]3)Cc3c2[nH]c2ccccc32)oc1=O` (single isomer, unassigned) [Example 8], at SSTR3 [1], the Ki turned out to be 23.7 nM. Besides, on SSTR3 [2], the EC50 was 18 nM.
For `CCn1nc(C2(c3noc(C)n3)N[C@@H](c3nc(-c4ccc(F)cn4)c[nH]3)Cc3c2[nH]c2ccccc32)oc1=O` (single isomer, unassigned) [Example 9], the affinity on SSTR3 [1], expressed as Ki, was 4.2 nM. Moreover, the EC50 at SSTR3 [2] worked out at 2.6 nM.
`Cn1nc(C2(c3ccccc3)NC(c3nc(-c4ccc(F)cn4)c[nH]3)Cc3c2[nH]c2ccccc32)oc1=O` (single isomer, unassigned) [Example 11]: the Ki on SSTR3 [1] was found to be 52.2 nM. Moreover, the EC50 at SSTR3 [2] came to 74.1 nM.
The molecule `Cn1nc(C2(c3ccccc3)NC(c3nc(-c4ccc(F)cn4)c[nH]3)Cc3c2[nH]c2ccccc32)oc1=O` (single isomer, unassigned) [Example 12] showed a Ki at SSTR3 [1] of 1.2 nM. In addition, the EC50 at SSTR3 [2] was 5.9 nM.
Take `Cn1nc(C2(c3ccc(C#N)cc3)NC(c3nc(-c4ccc(F)cc4)c[nH]3)Cc3c2[nH]c2ccccc32)oc1=O` (single isomer, unassigned) [Example 14]: on SSTR3 [1], the Ki amounted to 1.2 nM. For the same molecule, the EC50 on SSTR3 [2] stood at 5.4 nM.
`Cn1nc(C2(c3ccc(C#N)cc3)NC(c3nc(-c4ccc(F)cc4)c[nH]3)Cc3c2[nH]c2ccccc32)oc1=O` (single isomer, unassigned) [Example 15]: on SSTR3 [1], the affinity corresponds to a Ki of 2 nM. In addition, the EC50 on SSTR3 [2] came to 30.5 nM.
`CCn1nc(C2(c3ccc(C#N)cc3)N[C@@H](c3nc(-c4ccc(F)cn4)c[nH]3)Cc3c2[nH]c2ccccc32)oc1=O` (single isomer, unassigned) [Example 16]: the EC50 on SSTR3 [2] was determined as 11 nM.
Turning to `CCn1nc(C2(c3ccc(C#N)cc3)N[C@@H](c3nc(-c4ccc(F)cn4)c[nH]3)Cc3c2[nH]c2ccccc32)oc1=O` (single isomer, unassigned) [Example 17], the EC50 on SSTR3 [2] turned out to be 25.6 nM.
On the same count and under the same terms, for `Cn1cc(C2(c3nnc(O)o3)N[C@@H](c3nc(-c4ccc(F)cc4)c[nH]3)Cc3c2[nH]c2ccccc32)cn1` (single isomer, unassigned) [Example 18] the value was 1.1 nM.
With `Cn1cc(C2(c3nnc(O)o3)N[C@@H](c3nc(-c4ccc(F)cc4)c[nH]3)Cc3c2[nH]c2ccccc32)cn1` (single isomer, unassigned) [Example 19], the EC50 on SSTR3 [2] is 47.5 nM.
Still for that read-out and setting: for `Cn1cc(C2(c3nnc(O)o3)N[C@@H](c3nc(-c4ccc(F)cn4)c[nH]3)Cc3c2[nH]c2ccccc32)cn1` (single isomer, unassigned) [Example 20] the value was 680 nM; for `Cn1cc(C2(c3nn(C)c(=O)o3)N[C@@H](c3nc(-c4ccc(F)cc4)c[nH]3)Cc3c2[nH]c2ccccc32)cn1` (single isomer, unassigned) [Example 22], 6.1 nM.
The molecule `Cn1cc(C2(c3nn(C)c(=O)o3)N[C@@H](c3nc(-c4ccc(F)cc4)c[nH]3)Cc3c2[nH]c2ccccc32)cn1` (single isomer, unassigned) [Example 23] had a Ki on SSTR3 [1] of 1.2 nM. Further, on SSTR3 [2], the EC50 worked out at 2.3 nM.
With `CCOC(=O)Cn1nc(C2(c3cnn(CC)c3)N[C@@H](c3nc(-c4ccc(F)cn4)c[nH]3)Cc3c2[nH]c2ccccc32)oc1=O` (single isomer, unassigned) [Example 34], the inhibition constant (Ki) at SSTR3 [1] is 0.9 nM. Besides, the EC50 on SSTR3 [2] turned out to be 0.5 nM.
For the molecule `Oc1nnc(C2(c3cnn(C4CC4)c3)N[C@@H](c3nc(-c4ccc(F)cn4)c[nH]3)Cc3c2[nH]c2ccccc32)o1` (single isomer, unassigned) [Example 37], at SSTR3 [2], the EC50 was 0.6 nM.
For `COCc1nc(C2(c3nnc(O)o3)N[C@@H](c3nc(-c4ccc(F)cn4)c[nH]3)Cc3c2[nH]c2ccccc32)no1` (single isomer, unassigned) [Example 39], on SSTR3 [2], the EC50 was 12.5 nM.
In the case of `CCn1nc(C2(c3noc(COC)n3)N[C@@H](c3nc(-c4ccc(F)cn4)c[nH]3)Cc3c2[nH]c2ccccc32)oc1=O` (single isomer, unassigned) [Example 40], at SSTR3 [2], the EC50 amounted to 3 nM.
As for `CCn1nc(C2(c3noc(COC)n3)N[C@@H](c3nc(-c4ccc(F)cn4)c[nH]3)Cc3c2[nH]c2ccccc32)oc1=O` (single isomer, unassigned) [Example 41], on SSTR3 [2], the EC50 was 19 nM.
Consider `COCc1nc(C2(c3nn(C)c(=O)o3)N[C@@H](c3nc(-c4ccc(F)cn4)c[nH]3)Cc3c2[nH]c2ccccc32)no1` (single isomer, unassigned) [Example 42], for which the EC50 on SSTR3 [2] was determined as 3.2 nM.
In the case of `Cn1nnc(C2(c3nnc(O)o3)N[C@@H](c3nc(-c4ccc(F)cn4)c[nH]3)Cc3c2[nH]c2ccccc32)n1` (single isomer, unassigned) [Example 43], on SSTR3 [2], the EC50 is 1070 nM.
With `CCn1nnc(C2(c3nnc(O)o3)N[C@@H](c3nc(-c4ccc(F)cn4)c[nH]3)Cc3c2[nH]c2ccccc32)n1` (single isomer, unassigned) [Example 44], at SSTR3 [2], the EC50 turned out to be 2000 nM.
Regarding `CCn1nnc(C2(c3nnc(O)o3)N[C@@H](c3nc(-c4ccc(F)cn4)c[nH]3)Cc3c2[nH]c2ccccc32)n1` (single isomer, unassigned) [Example 45], the EC50 at SSTR3 [2] is 32.6 nM.
Same read-out and setting: for `CCn1nnc(C2(c3nn(C)c(=O)o3)N[C@@H](c3nc(-c4ccc(F)cn4)c[nH]3)Cc3c2[nH]c2ccccc32)n1` (single isomer, unassigned) [Example 46] the value was 21.4 nM; for `CCn1nnc(C2(c3nn(C)c(=O)o3)N[C@@H](c3nc(-c4ccc(F)cn4)c[nH]3)Cc3c2[nH]c2ccccc32)n1` (single isomer, unassigned) [Example 47], 74.4 nM; for `CCn1nc(C2(c3nnn(C)n3)N[C@@H](c3nc(-c4ccc(F)cn4)c[nH]3)Cc3c2[nH]c2ccccc32)oc1=O` (single isomer, unassigned) [Example 48], 63.4 nM.
Turning to `Cn1cc(C2(c3nnc(N)o3)N[C@@H](c3nc(-c4ccc(F)cc4)c[nH]3)Cc3c2[nH]c2ccccc32)cn1` (single isomer, unassigned) [Example 52], the Ki at SSTR3 [1] turned out to be 13.3 nM. The EC50 on SSTR3 [2] turned out to be 8 nM.
With `Cn1cc(C2(c3nnc(N)o3)N[C@@H](c3nc(-c4ccc(F)cc4)c[nH]3)Cc3c2[nH]c2ccccc32)cn1` (single isomer, unassigned) [Example 53], the EC50 at SSTR3 [2] was 0.2 nM.
Turning to `Cn1nc(C2(c3cnn(C4CC4)c3)N[C@@H](c3nc(-c4ccc(F)cn4)c[nH]3)Cc3c2[nH]c2ccccc32)oc1=O` (single isomer, unassigned) [Example 59], the EC50 on SSTR3 [2] was determined as 0.8 nM.
For the molecule `CSc1nnc(C2(c3cnn(C)c3)N[C@@H](c3nc(-c4ccc(F)cc4)c[nH]3)Cc3c2[nH]c2ccccc32)o1` (some centres unmarked) [Example 58], the Ki on SSTR3 [1] stood at 0.9 nM. Further, at SSTR3 [2], the EC50 turned out to be 1.9 nM.

Source of the values: patent publication US20100184799A1, “OXADIAZOLE BETA CARBOLINE DERIVATIVES AS ANTIDIABETIC COMPOUNDS” (priority 2009, published 2010).
